According to PubChem BioAssay AID1963960 (Molecular Pharmacology Branch, DTP, NCI, 2024):

Tested on: MDA-MB-468 spheroids with HUVEC/MSC, viability
Assay: Anticancer human tumor MDA-MB-468 cell line growth inhibition [PI3K];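 note: spheroids exposed to agents for seven days before readout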;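 for viability, T/C: 100% = DMSO vehicle control viability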
Conditions: for IC50: curve of first compound; for viability, T/C: stronger effect = lower value
Summary of the method: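 Targeted small molecules plus PI3K inhibitors, half-log dose series from Cmax (default top 10 microM), were applied to heterotypic spheroids of cancer cells with HUVEC and MSCs. Viability indicated growth inhibition.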

[1] = second compound 0.00316 µM, first compound 0.000316 µM
[2] = second compound 0.00316 µM, first compound 0.001 µM
[3] = second compound 0.00316 µM, first compound 0.00316 µM
[4] = second compound 0.00316 µM, first compound 0.01 µM
[5] = second compound 0.00316 µM, first compound 0.0316 µM
[6] = second compound 0.00316 µM, first compound 0.1 µM
[7] = second compound 0.01 µM, first compound 0.000316 µM
[8] = second compound 0.01 µM, first compound 0.001 µM
[9] = second compound 0.01 µM, first compound 0.00316 µM
[10] = second compound 0.01 µM, first compound 0.01 µM
[11] = second compound 0.01 µM, first compound 0.0316 µM
[12] = second compound 0.01 µM, first compound 0.1 µM
[13] = second compound 0.0316 µM, first compound 0.000316 µM
[14] = second compound 0.0316 µM, first compound 0.001 µM
[15] = second compound 0.0316 µM, first compound 0.00316 µM
[16] = second compound 0.0316 µM, first compound 0.01 µM
[17] = second compound 0.0316 µM, first compound 0.0316 µM
[18] = second compound 0.0316 µM, first compound 0.1 µM
[19] = second compound 0.1 µM, first compound 0.000316 µM
[20] = second compound 0.1 µM, first compound 0.001 µM
[21] = second compound 0.1 µM, first compound 0.00316 µM
[22] = second compound 0.1 µM, first compound 0.01 µM
[23] = second compound 0.1 µM, first compound 0.0316 µM
[24] = second compound 0.1 µM, first compound 0.1 µM
[25] = second compound 0.316 µM, first compound 0.000316 µM
[26] = second compound 0.316 µM, first compound 0.001 µM
[27] = second compound 0.316 µM, first compound 0.00316 µM
[28] = second compound 0.316 µM, first compound 0.01 µM
[29] = second compound 0.316 µM, first compound 0.0316 µM
[30] = second compound 0.316 µM, first compound 0.1 µM
[31] = second compound 1 µM, first compound 0.000316 µM
[32] = second compound 1 µM, first compound 0.001 µM
[33] = second compound 1 µM, first compound 0.00316 µM
[34] = second compound 1 µM, first compound 0.01 µM
[35] = second compound 1 µM, first compound 0.0316 µM
[36] = second compound 1 µM, first compound 0.1 µM

For CC(=O)c1c(C)c2cnc(Nc3ccc(N4CCNCC4)cn3)nc2n(C2CCCC2)c1=O + COc1c(OCCCN2CCOCC2)ccc2c3n(c(=NC(=O)c4cnc(N)nc4)nc12)CCN3, the IC50 (second compound 0.00316 µM) was greater than 100 nM, the IC50 (second compound 0.01 µM) was greater than 100 nM and the IC50 (second compound 0.0316 µM) was greater than 100 nM. For the same compound, the IC50 (second compound 0.1 µM) was greater than 100 nM, the IC50 (second compound 0.316 µM) was less than 0.316 nM and the IC50 (second compound 1 µM) was less than 0.316 nM. It also gave a viability, T/C [1] of 105%, a viability, T/C [2] of 92.6% and a viability, T/C [3] of 92.5%. For the same compound, the viability, T/C [4] was 99.7%, the viability, T/C [5] was 90.1% and the viability, T/C [6] was 91.5%. For the same compound, the viability, T/C [7] was 85.7%, the viability, T/C [8] was 84% and the viability, T/C [9] was 81.2%. It also gave a viability, T/C [10] of 86.2%, a viability, T/C [11] of 86.8% and a viability, T/C [12] of 110%. The viability, T/C [13] was 64.1%, the viability, T/C [14] was 67.5% and the viability, T/C [15] was 72.2%. The viability, T/C [16] was 79.8%, the viability, T/C [17] was 83.2% and the viability, T/C [18] was 86.4%. The viability, T/C [19] was 59.5%, the viability, T/C [20] was 62.8% and the viability, T/C [21] was 58.8%. For the same compound, the viability, T/C [22] was 61.5%, the viability, T/C [23] was 64.1% and the viability, T/C [24] was 53.2%. It also gave a viability, T/C [25] of 26.6%, a viability, T/C [26] of 25.5% and a viability, T/C [27] of 27.1%. It also gave a viability, T/C [28] of 26.3%, a viability, T/C [29] of 27.1% and a viability, T/C [30] of 27.9%. The viability, T/C [31] was 3.5%, the viability, T/C [32] was 3.63% and the viability, T/C [33] was 2.3%. For the same compound, the viability, T/C [34] was 3.4%, the viability, T/C [35] was 2.94% and the viability, T/C [36] was 2.61%.
With CC(C)n1nc(-c2ccc3oc(N)nc3c2)c2c(N)ncnc21 + COc1c(OCCCN2CCOCC2)ccc2c3n(c(=NC(=O)c4cnc(N)nc4)nc12)CCN3 the IC50 (second compound 0.00316 µM) was 34.2 nM, the IC50 (second compound 0.01 µM) was 41.7 nM and the IC50 (second compound 0.0316 µM) was 32 nM. For the same compound, the IC50 (second compound 0.1 µM) was 10.4 nM, the IC50 (second compound 0.316 µM) was less than 0.316 nM and the IC50 (second compound 1 µM) was less than 0.316 nM. The viability, T/C [1] was 81.1%, the viability, T/C [2] was 87% and the viability, T/C [3] was 95.5%. It also gave a viability, T/C [4] of 88.3%, a viability, T/C [5] of 52.3% and a viability, T/C [6] of 18.8%. For the same compound, the viability, T/C [7] was 77.2%, the viability, T/C [8] was 83.5% and the viability, T/C [9] was 87.7%. The viability, T/C [10] was 81.1%, the viability, T/C [11] was 61.1% and the viability, T/C [12] was 14.9%. For the same compound, the viability, T/C [13] was 75.6%, the viability, T/C [14] was 84.4% and the viability, T/C [15] was 80.9%. It also gave a viability, T/C [16] of 68%, a viability, T/C [17] of 51.2% and a viability, T/C [18] of 11.6%. For the same compound, the viability, T/C [19] was 49.8%, the viability, T/C [20] was 63.6% and the viability, T/C [21] was 53.7%. For the same compound, the viability, T/C [22] was 49.9%, the viability, T/C [23] was 36% and the viability, T/C [24] was 7.66%. It also gave a viability, T/C [25] of 28.2%, a viability, T/C [26] of 25.8% and a viability, T/C [27] of 28.1%. For the same compound, the viability, T/C [28] was 24.9%, the viability, T/C [29] was 15.4% and the viability, T/C [30] was 3.12%. For the same compound, the viability, T/C [31] was 3.84%, the viability, T/C [32] was 3.57% and the viability, T/C [33] was 2.98%. It also gave a viability, T/C [34] of 3%, a viability, T/C [35] of 1.87% and a viability, T/C [36] of 0.59%.
In the case of CCCS(=O)(=O)Nc1ccc(F)c(C(=O)c2c[nH]c3ncc(-c4ccc(Cl)cc4)cc23)c1F + COc1c(OCCCN2CCOCC2)ccc2c3n(c(=NC(=O)c4cnc(N)nc4)nc12)CCN3, the IC50 (second compound 0.00316 µM) is reported as 5170 nM, the IC50 (second compound 0.01 µM) is reported as 5380 nM and the IC50 (second compound 0.0316 µM) is reported as 4500 nM. For the same compound, the IC50 (second compound 0.1 µM) was 2110 nM, the IC50 (second compound 0.316 µM) was less than 31.6 nM and the IC50 (second compound 1 µM) was less than 31.6 nM. It also gave a viability, T/C [5] of 84.8%, a viability, T/C [6] of 102% and a viability, T/C (second compound 0.00316 µM, first compound 0.316 µM) of 84.6%. The viability, T/C (second compound 0.00316 µM, first compound 1 µM) was 102%, the viability, T/C (second compound 0.00316 µM, first compound 3.16 µM) was 74.1% and the viability, T/C (second compound 0.00316 µM, first compound 10 µM) was 17.9%. The viability, T/C [11] was 84.2%, the viability, T/C [12] was 82.3% and the viability, T/C (second compound 0.01 µM, first compound 0.316 µM) was 93.9%. It also gave a viability, T/C (second compound 0.01 µM, first compound 1 µM) of 84.3%, a viability, T/C (second compound 0.01 µM, first compound 3.16 µM) of 75.6% and a viability, T/C (second compound 0.01 µM, first compound 10 µM) of 20%. The viability, T/C [17] was 74.1%, the viability, T/C [18] was 78.2% and the viability, T/C (second compound 0.0316 µM, first compound 0.316 µM) was 76.5%. The viability, T/C (second compound 0.0316 µM, first compound 1 µM) was 74.3%, the viability, T/C (second compound 0.0316 µM, first compound 3.16 µM) was 64.9% and the viability, T/C (second compound 0.0316 µM, first compound 10 µM) was 16.2%. The viability, T/C [23] was 55.8%, the viability, T/C [24] was 56.5% and the viability, T/C (second compound 0.1 µM, first compound 0.316 µM) was 64.7%. The viability, T/C (second compound 0.1 µM, first compound 1 µM) was 59.1%, the viability, T/C (second compound 0.1 µM, first compound 3.16 µM) was 45.2% and the viability, T/C (second compound 0.1 µM, first compound 10 µM) was 12.3%. The viability, T/C [29] was 28.1%, the viability, T/C [30] was 29.7% and the viability, T/C (second compound 0.316 µM, first compound 0.316 µM) was 29.1%. It also gave a viability, T/C (second compound 0.316 µM, first compound 1 µM) of 27.6%, a viability, T/C (second compound 0.316 µM, first compound 3.16 µM) of 26.6% and a viability, T/C (second compound 0.316 µM, first compound 10 µM) of 8.09%. The viability, T/C [35] was 4.14%, the viability, T/C [36] was 4.88% and the viability, T/C (second compound 1 µM, first compound 0.316 µM) was 4.04%. The viability, T/C (second compound 1 µM, first compound 1 µM) was 5.95%, the viability, T/C (second compound 1 µM, first compound 3.16 µM) was 5.41% and the viability, T/C (second compound 1 µM, first compound 10 µM) was 3.73%.
